In patent publication US20240408080A1, “PHARMACEUTICAL COMPOSITIONS OF CGRP INHIBITORS AND METHODS OF THEIR USE” (Pfizer Ireland Pharmaceuticals, priority 2021, published 2024):

Experiments:
[1] = pH-solubility profile (physical and chemical properties of drug substance); type: physicochemical; conditions: mono-hydrochloride salt
[2] = pKa (physical and chemical properties of drug substance); type: physicochemical
[3] = Phase 1 multiple ascending dose (MAD) study, intranasal, pharmacokinetics; type: in vivo, human; conditions: for AUC: human
Description: A Phase 1, single-center, randomized, double-blind, placebo-controlled, sequential multiple ascending dose (MAD) study with 2 alternate dosing arms was conducted. […] The MAD portion of the study consists of 4 cohorts, with a maximum dose of 20 mg administered once daily for up to 14 days in 3 cohorts, and 20 mg administered twice daily for up to 8 days in the fourth cohort.
In addition to the 4 MAD cohorts, there were 2 alternate dosing cohorts, each consisting of 1 day dosing. The first alternate dosing cohort assessed the effect of 2 sequential administrations of 20 mg (20 mg spray [100 μL of 200 mg/mL] in alternate nostrils); with a 30 minute interval between administrations. A 2nd alternate dosing cohort assessed the effect of 2 sequential administrations of 20 mg (20 mg spray [100 μL of 200 mg/mL] in alternate nostrils); with a nose blow and 5 minute interval between administrations.
The PK data were collected from subjects in Cohorts 1 to 4.

[4] = system: acute treatment of migraine; assay: Phase 2/3 clinical trial BHV3500-201 (Study 201), efficacy of intranasal zavegepant versus placebo; type: in vivo, human; conditions: for (2) Return to normal function at 2 hours posidose, Stratified Percentage Difference (Zavegepant − Placebo) / (7) Return to normal function at 60 minutes postdose, Stratified Percentage Difference (Zavegepant − Placebo) / (9) Return to normal function at 30 minutes postdose, Stratified Percentage Difference (Zavegepant − Placebo): subjects with functional disability at onset; for (9) Return to normal function at 30 minutes postdose, n/N (%): mITT subjects with functional disability at on-study migraine attack onset
[5] = Phase 2/3 clinical trial BHV3500-201 (Study 201), safety, adverse events and liver function tests; type: in vivo, human
[6] = Zavegepant 5 mg Group vs placebo, CMH weighting, mITT subjects
[7] = Zavegepant 5 mg Group vs placebo, CMH weighting
[8] = Zavegepant 5 mg Group, intranasal single dose, mITT subjects
[9] = Zavegepant 10 mg Group vs placebo, CMH weighting, mITT subjects
[10] = Zavegepant 10 mg Group vs placebo, CMH weighting
[11] = Zavegepant 10 mg Group, intranasal single dose, mITT subjects
[12] = Zavegepant 20 mg Group vs placebo, CMH weighting, mITT subjects
[13] = Zavegepant 20 mg Group vs placebo, CMH weighting
[14] = Zavegepant 20 mg Group vs placebo, CMH weighting, subjects with symptom present at onset

In the case of `Cc1cc(C[C@@H](NC(=O)N2CCC(c3cc4ccccc4[nH]c3=O)CC2)C(=O)N2CCN(C3CCN(C)CC3)CC2)cc2cn[nH]c12` [Zavegepant, (R)-N-(3-(7-methyl-1H-indazol-5-yl)-1-(4-(1-methylpiperidin-4-yl)piperazin-1-yl)-1-oxopropan-2-yl)-4-(2-oxo-1,2-dihydroquinolin-3-yl)piperidine-1-carboxamide], the pH-solubility profile ([1]; at lower pH) is reported as over 300 mg/mL, the pH-solubility profile ([1]; pH = 8.2) is reported as 105 mg/mL and the “pKa (second value)” value [2] is reported as 8.8. For the same molecule, the “Plasma Concentrations (Mean)” value ([3]; 5 mg, Day 14, 0.500 h) was 8.08 ng/mL, the AUC ([3]; in vivo, 5 mg) was 19 ng·h/mL and the AUC ([3]; in vivo, 10 mg) was 30.9 ng·h/mL. The AUC ([3]; in vivo, 20 mg) was 87.9 ng·h/mL, the urine concentrations ([3]; in vivo) was “below the limit of quantitation” and the “Freedom from MBS (Most Bothersome Symptom), 2 Hour Endpoint” value ([4]; 5 mg single dose) was 39.0%. For the same molecule, the “Pain Relief at 15 Minutes Post-Dose, n/N (value in brackets)” value ([4]; 15 mg (so in the source), Prophylactic migraine medication use: Yes) was 13/50 (24.0), the “return to normal function” value ([4]; 20 mg) was “return to normal function as early as 30 minutes” and the “onset of pain relief” value ([4]; 5, 10, and 20 mg single dose, stratified CMH tests, mITT) was “pain relief as early as 15 minutes post-dose”. The “co-primary endpoints of pain freedom and freedom from MBS at 2 hours versus placebo” value ([4]; 10 and 20 mg single dose) was “statistically superior (p<0.05) to placebo”, the “(1) Pain relief at 2 hours postdose, Stratified Percentage Difference (Zavegepant − Placebo)” value [4, 6] was 4.2% and the “(3) Rescue medication use within 24 hours postdose, Stratified Percentage Difference (Zavegepant − Placebo)” value [4, 6] was −2.4%. For the same molecule, the “(4) Photophobia freedom at 2 hours postdose, Stratified Percentage Difference (Zavegepant − Placebo)” value [4, 6] was 4.6%, the “(6) Pain relief at 60 minutes postdose, Stratified Percentage Difference (Zavegepant − Placebo)” value [4, 6] was 5.1% and the “(8) Pain relief at 30 minutes postdose, Stratified Percentage Difference (Zavegepant − Placebo)” value [4, 6] was 1.9%. For the same molecule, the “(10) Sustained pain relief from 2 to 24 hours postdose, Stratified Percentage Difference (Zavegepant − Placebo)” value [4, 6] was 8.0%, the “(11) Sustained pain freedom from 2 to 24 hours postdose, Stratified Percentage Difference (Zavegepant − Placebo)” value [4, 6] was 5.3% and the “(12) Sustained pain relief from 2 to 48 hours postdose, Stratified Percentage Difference (Zavegepant − Placebo)” value [4, 6] was 7.4%. For the same molecule, the “(13) Sustained pain freedom from 2 to 48 hours postdose, Stratified Percentage Difference (Zavegepant − Placebo)” value [4, 6] was 5.5%, the “(2) Return to normal function at 2 hours posidose, Stratified Percentage Difference (Zavegepant − Placebo)” value [4, 7] was 4.3% and the “(7) Return to normal function at 60 minutes postdose, Stratified Percentage Difference (Zavegepant − Placebo)” value [4, 7] was 5.5%. The “(9) Return to normal function at 30 minutes postdose, Stratified Percentage Difference (Zavegepant − Placebo)” value [4, 7] was 3.4%, the “(14) Nausca freedom at 2 hours postdose, Stratified Percentage Difference (Zavegepant − Placebo)” value ([4]; Zavegepant 5 mg Group vs placebo, CMH weighting, subjects with symptom present at onset) was 1.8% and the “(4) Photophobia freedom at 2 hours postdose, n/N (%)” value [4, 8] was 118/337 (35.0) %. The “(6) Pain relief at 60 minutes postdose, n/N (%)” value [4, 8] was 182/387 (47.0) %, the “(9) Return to normal function at 30 minutes postdose, n/N (%)” value (“(9) Return to normal function … (%)” below) ([4]; Zavegepant 5 mg Group, intranasal single dose) was 32/363 (8.8) % and the “(1) Pain relief at 2 hours postdose, Stratified Percentage Difference (Zavegepant − Placebo)” value [4, 9] was 7.1%. For the same molecule, the “(3) Rescue medication use within 24 hours postdose, Stratified Percentage Difference (Zavegepant − Placebo)” value [4, 9] was −1.1%, the “(4) Photophobia freedom at 2 hours postdose, Stratified Percentage Difference (Zavegepant − Placebo)” value [4, 9] was 5.1% and the “(6) Pain relief at 60 minutes postdose, Stratified Percentage Difference (Zavegepant − Placebo)” value [4, 9] was 4.2%. For the same molecule, the “(8) Pain relief at 30 minutes postdose, Stratified Percentage Difference (Zavegepant − Placebo)” value [4, 9] was 5.3%, the “(10) Sustained pain relief from 2 to 24 hours postdose, Stratified Percentage Difference (Zavegepant − Placebo)” value [4, 9] was 6.8% and the “(11) Sustained pain freedom from 2 to 24 hours postdose, Stratified Percentage Difference (Zavegepant − Placebo)” value [4, 9] was 6.1%. For the same molecule, the “(12) Sustained pain relief from 2 to 48 hours postdose, Stratified Percentage Difference (Zavegepant − Placebo)” value [4, 9] was 7.0%, the “(13) Sustained pain freedom from 2 to 48 hours postdose, Stratified Percentage Difference (Zavegepant − Placebo)” value [4, 9] was 6.3% and the “(2) Return to normal function at 2 hours posidose, Stratified Percentage Difference (Zavegepant − Placebo)” value [4, 10] was 7.1%. The “(7) Return to normal function at 60 minutes postdose, Stratified Percentage Difference (Zavegepant − Placebo)” value [4, 10] was 1.8%, the “(9) Return to normal function at 30 minutes postdose, Stratified Percentage Difference (Zavegepant − Placebo)” value [4, 10] was 2.1% and the “(15) Pain relapse from 2 to 48 hours postdose, Stratified Percentage Difference (Zavegepant − Placebo)” value ([4]; Zavegepant 10 mg Group vs placebo, CMH weighting, subjects with pain freedom at 2 hours postdose) was −17.0%. The “(14) Nausca freedom at 2 hours postdose, Stratified Percentage Difference (Zavegepant − Placebo)” value ([4]; Zavegepant 10 mg Group vs placebo, CMH weighting, subjects with symptom present at onset) was 2.9%, the “(3) Rescue medication use within 24 hours postdose, n/N (%)” value [4, 11] was 101/388 (26.0) % and the “(6) Pain relief at 60 minutes postdose, n/N (%)” value [4, 11] was 180/391 (46.0) %. For the same molecule, the “(9) Return to normal function … (%)” value ([4]; Zavegepant 10 mg Group, intranasal single dose) was 27/354 (7.6) %, the “(15) Pain relapse from 2 to 48 hours postdose, n/N (%)” value ([4]; Zavegepant 10 mg Group, intranasal single dose, mITT subjects with pain freedom at 2 hours postdose) was 29/88 (33.0) % and the “(1) Pain relief at 2 hours postdose, Stratified Percentage Difference (Zavegepant − Placebo)” value [4, 12] was 7.5%. The “(3) Rescue medication use within 24 hours postdose, Stratified Percentage Difference (Zavegepant − Placebo)” value [4, 12] was −7.1%, the “(4) Photophobia freedom at 2 hours postdose, Stratified Percentage Difference (Zavegepant − Placebo)” value [4, 12] was 7.4% and the “(6) Pain relief at 60 minutes postdose, Stratified Percentage Difference (Zavegepant − Placebo)” value [4, 12] was 7.8%. For the same molecule, the “(8) Pain relief at 30 minutes postdose, Stratified Percentage Difference (Zavegepant − Placebo)” value [4, 12] was 1.9%, the “(10) Sustained pain relief from 2 to 24 hours postdose, Stratified Percentage Difference (Zavegepant − Placebo)” value [4, 12] was 8.9% and the “(11) Sustained pain freedom from 2 to 24 hours postdose, Stratified Percentage Difference (Zavegepant − Placebo)” value [4, 12] was 6.7%. For the same molecule, the “(12) Sustained pain relief from 2 to 48 hours postdose, Stratified Percentage Difference (Zavegepant − Placebo)” value [4, 12] was 6.2%, the “(13) Sustained pain freedom from 2 to 48 hours postdose, Stratified Percentage Difference (Zavegepant − Placebo)” value [4, 12] was 5.7% and the “(2) Return to normal function at 2 hours posidose, Stratified Percentage Difference (Zavegepant − Placebo)” value [4, 13] was 7.3%. The “(7) Return to normal function at 60 minutes postdose, Stratified Percentage Difference (Zavegepant − Placebo)” value [4, 13] was 1.7%, the “(9) Return to normal function at 30 minutes postdose, Stratified Percentage Difference (Zavegepant − Placebo)” value [4, 13] was 4.5% and the “(5) Phonophobia freedom at 2 hours postdose, Stratified Percentage Difference (Zavegepant − Placebo)” value [4, 14] was 9.3%. For the same molecule, the “(14) Nausca freedom at 2 hours postdose, Stratified Percentage Difference (Zavegepant − Placebo)” value [4, 14] was 3.7%, the “(9) Return to normal function … (%)” value ([4]; Zavegepant 20 mg Group, intranasal single dose) was 37/372 (9.9) % and the “secondary endpoints demonstrating early activity versus placebo” value ([4]; nominal p<0.05) was “superior to placebo on multiple secondary endpoints”. The “durability of benefits (sustained pain freedom and pain relief 2 to 24 and 2 to 48 hours)” value ([4]; nominal p<0.05, 5, 10 and 20 mg (pain relief 2 to 48 h: 5 and 10 mg)) was “durable and sustained without rescue medication out to 48 hours”, the “ALT or AST > 3x ULN (subjects)” value ([5]; 5 mg (N = 388)) was 0 and the “Bilirubin > 2x ULN (subjects)” value ([5]; 5 mg (N = 388)) was 0. For the same molecule, the “ALT or AST > 3x ULN (subjects)” value ([5]; 10 mg (N = 394)) was 0, the “Bilirubin > 2x ULN (subjects)” value ([5]; 10 mg (N = 394)) was 0 and the “ALT or AST > 3x ULN (subjects)” value ([5]; 20 mg (N = 403)) was 0. The “Bilirubin > 2x ULN (subjects)” value ([5]; 20 mg (N = 403)) was 0, the “ALT or AST > 3x ULN (subjects)” value ([5]; All zavegepant (N = 1185)) was 0 and the “Bilirubin > 2x ULN (subjects)” value ([5]; All zavegepant (N = 1185)) was 0. For the same molecule, the “hepatotoxicity signal (AST or ALT>3× ULN, total bilirubin>2× ULN)” value ([5]; any treatment arm) was “no signal of hepatoxicity”, the tolerability and safety ([5]; intranasal, single dose trial) was “well tolerated and safe” and the “AEs mild in intensity” value ([5]; single dose trial) was over 80%.
